Measured values taken from US20240302280A1, “PREPARATION METHOD AND APPLICATION OF VISCOSITY FLUORESCENT PROBE” (Zhengzhou University of Light Industry, priority 2023, published 2024).

Legend:
HeLa cells [1] = experiment: MTT cytotoxicity experiment; format: cell-based; conditions: 0-20 μM probe, 24 hours
[2] = Effect of solution pH on probe fluorescence in PBS/THF (4/1); format: physicochemical; conditions: pH range 1.64 to 11.45
Procedure: 20 μL of the fluorescent probe stock solution were taken and added dropwise into a PBS/THF (4/1) system, resulting in a final volume of 2 mL.

[3] = Effect of interfering substances on probe fluorescence in PBS/THF (4/1); format: physicochemical; conditions: 10 μM interfering substances
Procedure: 20 μL of the fluorescent probe stock solution were taken and added dropwise into the PBS/THF (4/1) system, into which 10 μM of other interfering substance solutions were added dropwise, resulint in a final volume is 2 mL. Other interfering substances had little effect on the fluorescence intensity of TzAr-Nap-OH.

[4] = Spectral response of the probe to solution viscosity (glycerol/MeOH); format: physicochemical; conditions: viscosity increased from 1.4 cp to 955 cp by glycerol/MeOH volume ratio
Excerpt: Therefore, it may be concluded that the fluorescence intensity of TzAr-Nap-OH may be used as a reliable indicator for a quantitative viscosity sensor.

HeLa cells [5] = experiment: Cell imaging of response to viscosity (monensin-treated cells); format: cell-based; conditions: probe 10 μM, 30 min, λex=360 nm
Procedure: FIG. 9 is a fluorescence image of Hela cells; (a-c) HeLa cells were cultured with TzAr-Nap-OH (10 μM) for 30 minutes; (d-f) HeLa cells were treated with monensin (Mo) and incubated with the TzAr-Nap-OH probe for 30 minutes; λex=360 nm, slit=5 nm, scale bar=20 μm.
Images a-c were obtained by treating HeLa cells with TzAr-Nap-OH (10 μM) for 30 mins. HeLa cells were first treated with monensin to increase cell viscosity, and then treated with TzAr-Nap-OH (10 μM) to obtain images d-f.

## Oc1ccc2cc(/C=C/c3nc(-c4ccccc4)nc(-c4ccccc4)n3)ccc2c1 [TzAr-Nap-OH]
HeLa cells [1]
  survival rate (cell viability): over 81%
[2]
  change of fluorescence intensity with pH: did not change significantly
[3]
  effect of other interfering substances on fluorescence intensity: little effect
[4]
  increase of fluorescence intensity at 520 nm: ~15 times
HeLa cells [5]
  fluorescence intensity of monensin-treated cells versus normal cells: significantly higher
